Assay results from US20060069132A1, “Azolecarboxamide herbicides” (priority 2004, published 2006).

Key:
[1] = test system: barnyardgrass; test: Test B pre-/postemergence herbicide test; format: in vivo, Echinochloa crus-galli; conditions: for Plant response rating (0 to 100 scale), Barnyardgrass: 0 is no effect, preemergence
How it was run: (§1)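 Seeds were planted and treated preemergence with compounds formulated in a non-phytotoxic solvent mixture containing surfactant, while plants at the 1- to 4-leaf stage (2 to 18 cm) received postemergence sprays. Flooded paddy plants were grown to the 2-leaf stage. After 13 to 15 days in a greenhouse, injury was visually rated 0–100 against untreated controls.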

[2] = test system: Surinam grass; test: Test B pre-/postemergence herbicide test; format: in vivo, Urochloa decumbens; conditions: for Plant response rating (0 to 100 scale), Surinam Grass: 0 is no effect, 100 is complete control, preemergence; for Surinam Grass plant response rating: scale 0 (no effect) to 100 (complete control)
How it was run: (§2)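 Evaluation is visual, comparing treated with control plants on a scale where 0 means no effect and 100 means full control. Treatments were preemergence, or postemergence on seedlings 2–18 cm tall, and held 13–15 days in the greenhouse.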

[3] = test system: cocklebur; test: Test B pre-/postemergence herbicide test; format: in vivo, Xanthium strumarium; conditions: for Plant response rating (0 to 100 scale), Cocklebur: 0 is no effect, preemergence
How it was run: as §1

[4] = test system: corn; test: Test B pre-/postemergence herbicide test; format: in vivo, Zea mays; conditions: for Plant response rating (0 to 100 scale), Corn: 0 is no effect, preemergence
How it was run: as §2

[5] = test system: large crabgrass; test: Test B pre-/postemergence herbicide test; format: in vivo, Digitaria sanguinalis; conditions: for Plant response rating (0 to 100 scale), Crabgrass, Large: 0 is no effect, preemergence
How it was run: as §2

[6] = test system: giant foxtail; test: Test B pre-/postemergence herbicide test; format: in vivo, Setaria faberi; conditions: for Plant response rating (0 to 100 scale), Foxtail, Giant: 0 is no effect, preemergence
How it was run: as §2

[7] = test system: lambsquarters; test: Test B pre-/postemergence herbicide test; format: in vivo, Chenopodium album; conditions: for Plant response rating (0 to 100 scale), Lambsquarters: 0 is no effect, 100 is complete control, preemergence; for Lambsquarters plant response rating: scale 0 (no effect) to 100 (complete control)
How it was run: as §2

[8] = test system: pigweed; test: Test B pre-/postemergence herbicide test; format: in vivo, Amaranthus retroflexus; conditions: for Plant response rating (0 to 100 scale), Pigweed: 0 is no effect, 100 is complete control, preemergence; for Pigweed plant response rating: scale 0 (no effect) to 100 (complete control)
How it was run: as §2

[9] = test system: velvetleaf; test: Test B pre-/postemergence herbicide test; format: in vivo, Abutilon theophrasti; conditions: for Plant response rating (0 to 100 scale), Velvetleaf: 0 is no effect, 100 is complete control, preemergence; for Velvetleaf plant response rating: scale 0 (no effect) to 100 (complete control)
How it was run: as §2

[10] = test system: blackgrass; test: Test B postemergence herbicide test; format: in vivo, Alopecurus myosuroides
How it was run: (§3)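 Postemergence plants were sprayed with formulated test chemicals at 2 to 18 cm height (1- to 4-leaf stage); paddy species were grown to the 2-leaf stage. After 13 to 15 days in a greenhouse, injury was rated visually against untreated controls on a 0–100 scale (0 = no effect, 100 = complete control).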

[11] = test system: wheat; test: Test B postemergence herbicide test; format: in vivo, Triticum aestivum; design: key to Wheat plant response rating: 0 = no effect, 100 = complete control
How it was run: (§4)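 Read-out: visual comparison with controls, scored 0 to 100, where 100 means complete control and 0 no effect. Formulated chemicals were applied postemergence to plants 2–18 cm tall (1- to 4-leaf), or to flooded-paddy plants at the 2-leaf stage, then held 13 to 15 days under glass.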

[12] = test system: wild oat; test: Test B postemergence herbicide test; format: in vivo, Avena fatua; conditions: scale 0 (no effect) to 100 (complete control)
How it was run: as §4

[13] = test system: rice; test: Test B flooded paddy test; format: in vivo, Oryza sativa; conditions: 1000 g ai/ha, scale 0 to 100 (0 no effect, 100 complete control)
How it was run: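 Each value is a visual 0–100 response rating taken against controls 13 to 15 days after treatment in the greenhouse. Plants received formulated chemical postemergence at the 1- to 4-leaf stage or, in flooded paddy, at the 2-leaf stage.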

[14] = test system: small flower umbrella sedge; test: Test B flooded paddy test; format: in vivo, Cyperus difformis; conditions: 1000 g ai/ha, scale 0 to 100 (0 no effect, 100 complete control)
How it was run: as §3

[15] = test system: ducksalad; test: Test B flooded paddy test; format: in vivo, Heteranthera limosa; conditions: 1000 g ai/ha, scale 0 to 100 (0 no effect, 100 complete control)
How it was run: as §3

[16] = 125 g ai/ha, 100 is complete control
[17] = 125 g ai/ha, visual rating, scale 0 (no effect) to 100 (complete control), postemergence
[18] = postemergence, 500 g ai/ha, scale 0 to 100, 0 is no effect, 100 is complete control
[19] = 125 g ai/ha, visual rating, postemergence
[20] = 500 g ai/ha, scale 0 to 100, 0 no effect, 100 complete control, preemergence
[21] = Postemergence, 500 g ai/ha, scale 0 (no effect) to 100 (complete control)

Structure (SMILES)	Plant response rating (0 to 100 scale), Barnyardgrass [1, 16]	Barnyardgrass plant response rating [1, 17]	Plant response rating (0 to 100 scale), Surinam Grass ([2]; 125 g ai/ha)	Surinam Grass plant response rating [2, 19]	Surinam Grass plant response rating ([2]; Postemergence, 500 g ai/ha)	Plant response rating (0 to 100 scale), Cocklebur [3, 16]	Cocklebur plant response rating [3, 17]	Plant response rating (0 to 100 scale), Corn [4, 16]	Corn plant response rating [4, 17]	Plant response rating (0 to 100 scale), Crabgrass, Large [5, 16]	Crabgrass, Large plant response rating [5, 17]	Plant response rating (0 to 100 scale), Foxtail, Giant [6, 16]	Foxtail, Giant plant response rating [6, 17]	Plant response rating (0 to 100 scale), Lambsquarters ([7]; 125 g ai/ha)	Lambsquarters plant response rating [7, 19]	Lambsquarters plant response rating ([7]; Postemergence, 500 g ai/ha)	Plant response rating (0 to 100 scale), Pigweed ([8]; 125 g ai/ha)	Pigweed plant response rating [8, 19]	Pigweed plant response rating ([8]; Postemergence, 500 g ai/ha)	Plant response rating (0 to 100 scale), Velvetleaf ([9]; 125 g ai/ha)	further results
CCNC(=O)c1cccc(NC(=O)c2nn(C(C)(C)CC)nc2CC)c1 [Compound 376]	80	10	40	10	20	0	20	40	10	80	10	70	30	100	70	90	100	70	90	10	Barnyardgrass plant response rating [1, 18]: 40; Cocklebur plant response rating [3, 18]: 30; Corn plant response rating [4, 18]: 30; Crabgrass, Large plant response rating [5, 18]: 50; Foxtail, Giant plant response rating [6, 18]: 60; Velvetleaf plant response rating [9, 19]: 20; Velvetleaf plant response rating ([9]; Postemergence, 500 g ai/ha): 40; Blackgrass plant response rating [10, 17]: 10; Blackgrass plant response rating [10, 18]: 40; Wheat plant response rating [11, 17]: 10; Wheat plant response rating [11, 20]: 90; Wheat plant response rating [11, 21]: 20; Oat, Wild plant response rating [12, 19]: 20; Oat, Wild plant response rating ([12]; Postemergence, 500 g ai/ha): 40; Rice plant response rating [13]: 60; Sedge, Umbrella plant response rating [14]: 80; Ducksalad plant response rating [15]: 90
Cc1nn(C(C)(C)C)nc1C(=O)Nc1cccc(C(=O)N(C)C)c1 [Compound 391]	100	10	100	10	30	70	30	90	10	100	10	90	20	100	70	90	100	50	70	80	Barnyardgrass plant response rating [1, 21]: 30; Cocklebur plant response rating [3, 21]: 30; Corn plant response rating [4, 21]: 30; Crabgrass, Large plant response rating [5, 21]: 30; Foxtail, Giant plant response rating [6, 21]: 30; Velvetleaf plant response rating [9, 19]: 40; Velvetleaf plant response rating ([9]; Postemergence, 500 g ai/ha): 60; Blackgrass plant response rating [10, 17]: 30; Blackgrass plant response rating [10, 21]: 70; Wheat plant response rating [11, 17]: 0; Wheat plant response rating [11, 20]: 100; Wheat plant response rating [11, 21]: 10; Oat, Wild plant response rating [12, 19]: 0; Oat, Wild plant response rating ([12]; Postemergence, 500 g ai/ha): 20; Rice plant response rating [13]: 90; Sedge, Umbrella plant response rating [14]: 80; Ducksalad plant response rating [15]: 90
